In one assay the target is T1, human GRα protein (Homo sapiens, UniProt P04150).
T1 construct: made in house; host or cells: insect cells infected with baculovirus; cytoplasm fraction used
T1 sequence (P04150 1-777): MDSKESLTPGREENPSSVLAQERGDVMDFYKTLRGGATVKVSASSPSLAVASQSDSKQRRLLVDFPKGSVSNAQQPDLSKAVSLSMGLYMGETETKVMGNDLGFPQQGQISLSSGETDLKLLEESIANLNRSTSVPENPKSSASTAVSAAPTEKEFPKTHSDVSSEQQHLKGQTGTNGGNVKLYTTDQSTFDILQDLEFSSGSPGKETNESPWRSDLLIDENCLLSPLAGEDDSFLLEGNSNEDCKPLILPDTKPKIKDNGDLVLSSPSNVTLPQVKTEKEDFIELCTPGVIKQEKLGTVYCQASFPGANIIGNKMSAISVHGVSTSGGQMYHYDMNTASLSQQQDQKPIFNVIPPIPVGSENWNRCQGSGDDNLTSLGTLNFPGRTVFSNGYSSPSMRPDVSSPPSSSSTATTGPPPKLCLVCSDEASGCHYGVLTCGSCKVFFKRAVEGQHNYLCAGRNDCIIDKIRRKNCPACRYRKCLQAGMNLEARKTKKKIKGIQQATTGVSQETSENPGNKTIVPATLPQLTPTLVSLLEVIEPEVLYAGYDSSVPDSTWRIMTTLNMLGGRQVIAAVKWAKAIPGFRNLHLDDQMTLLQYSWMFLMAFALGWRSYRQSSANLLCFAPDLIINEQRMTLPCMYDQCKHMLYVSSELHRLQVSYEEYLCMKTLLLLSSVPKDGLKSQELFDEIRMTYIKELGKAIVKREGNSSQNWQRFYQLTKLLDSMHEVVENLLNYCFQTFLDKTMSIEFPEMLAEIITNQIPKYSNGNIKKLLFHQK
Description: Binding inhibitory assay (displacement of 3H-dexamethasone from the cytoplasm fraction of baculovirus-infected insect cells). The settings on record: for inhibition at 0.1 µM: read-out: Binding Inhibitory ratio (%) of 100 nM of test compound. As to the method: Insect cells, which had been infected with baculovirus for expressing human GRα protein, were suspended in an approximately equal volume of a binding buffer (10 mM Tris-Cl, 1.5 mM EDTA, 10% glycerol, 5 mM DTT, 20 mM sodium molybdate, pH 7.6). The mixture was rapidly frozen with liquid nitrogen, and then melted at room temperature. This cycle was repeated totally twice in order to break the cell membrane. The mixture was ultracentrifuged under 100,000 g at 4° C. for one hour to give the supernatant, which was the cytoplasm fraction containing human GRα protein.
A polypropylene 96-well plate (manufactured by Costar Corporation, etc.) was placed on ice, and DMSO or a test compound (each 1 μl) was put into each well. A 10 nM ^3H-Dex solution (50 μl; tritiated dexamethasone; manufactured by Amersham) in the binding buffer, and a GR protein solution, i.e., a solution by diluting the above cytoplasm fraction with the binding buffer (50 μl) were added to each well, and the plate was lightly shaken with a plate mixer, and then left to stand at 4° C. for 16 to 20 hours (the final concentration of DMSO: 1%).
A 5% solution of dextran-coated active carbon (manufactured by Sigma) suspended in the binding buffer (50 μl) was put into each well, and the plate was lightly shaken with a plate mixer for 30 seconds. Then, the plate was centrifuged at 2500 rpm at 4° C. for 5 minutes, and the ^3H count in the supernatant (50 μl) was measured by a TopCount (manufactured by Perkin-Elmer Corporation). Each test compound was tested twice.
The binding activity was calculated as follows. The mean ^3H count in the presence of dexamethason (Dex) 10 μM was considered as NSB (non-specific binding), and the binding inhibitory ratio in each well was calculated by the following equation.
Binding Inhibitory Ratio (%)=100×{1−(cpm value of each well−NSB)/(mean cpm value of DMSO-well−NSB)}
(cpm means count per minute)
The mean binding inhibitory ratio of each well was calculated by the above equation to give a binding inhibitory ratio of each test compound.

The subject of the next assay is H4-III-E cells. Description: TAT (tyrosine aminotransferase) assay. Format: cell-based. The settings on record: for activation at 10 µM / Agonistic activity of 10 μM test compound: 10 μM test compound alone, relative to maximum Dex-induced TAT activity (100%); for activation at 10 µM: read-out: Agonistic activity of 10 μM test compound; for Antagonistic activity of 10 μM test compound: 10 μM test compound together with 0.005 μM dexamethasone, inhibitory ratio against TAT activity increase by Dex. The method, then:
H4-III-E cells, which had been continuously cultured in α-MEM medium A (supplemented with 10% inactivated FBS, 50 μM 2-mercapto-ethanol), were suspended in α-MEM medium A or α-MEM medium B (supplemented with 10% inactivated FBS, 50 μM 2-mercapto-ethanol, but without phenol red), and the cell suspension was seeded to a 96-well plate in an amount of 2×10^4 cells/100 μl/well, and the cells were cultured overnight. The supernatant in the medium was removed, and a test compound (100 μl, diluted with α-MEM medium A or α-MEM medium B) was added, and the cells were further cultured overnight. In order to measure the agonistic activity, a test compound was added alone, while in order to measure the antagonistic activity, a test compound was added simultaneously together with 0.005 μM dexamethasone and evaluated the extent of the inhibitory effect of said test compound against the TAT activity-inducing activity by dexamethasone.
The culture supernatant in the plate was removed by suction, and a cell lysate (20 μL; 1% NP-40, 0.2% Triton X-100, 0.25% DOC, 0.1% SDS, 1 mM EGTA, 150 mM NaCl, Tris (pH7.4), Protease inhibitor cocktail [2.5 mg/ml aprotinin, 2.5 mg/ml leupeptin, 2.5 mg/ml soybean trypsin inhibitor]) was added, and further thereto was added a TAT reaction reagent (150 μL; 10 N KOH, 0.125 M KH2PO4, 0.5 M α-ketoglutarate, 5 mM Pyridoxal-5′ phosphate, L-tyrosine), and the mixture was reacted at 37° C. for 15 minutes. Further, a 10N KOH (20 μL) was added thereto, and the mixture was reacted at 37° C. for 30 minutes, and the absorbance at 331 nm was measured by a microplate reader (SPECTRA MAX 250).
From the mean absorbance in the wells to which a test compound was added, the mean absorbance in the wells to which a compound and a TAT reaction solution were not added was subtracted.
Agonistic activity (%)=100×[(absorbance of the drug-treated group)−(absorbance of the group without TAT reaction reagent)]/[(absorbance of Dex-treated group)−(absorbance of the group without TAT reaction reagent)]
On the other hand, the antagonistic activity was calculated as follows.
Antagonistic activity (%)=Inhibitory ratio (%) against TAT activity increase by Dex=100−100×[(absorbance of the drug-treated group)−(absorbance of the group without a drug)]/[(absorbance of Dex-treated group)−(absorbance of the group without a drug)]
With regard to the agonistic activity and the antagonistic activity, the results of 10% or more were expressed as O, while the results of less than 10% were expressed as X.

The mark [1] stands for this setting: 100 nM test compound, 3H-Dex, NSB with 10 μM dexamethasone.

The structures appear in SMILES notation. Where two headings read alike, the source gives them in different places. Bounds are passed on as bounds.

As to `O=[N+]([O-])c1ccc2c(C(O)(CN3CCCCC3)C(F)(F)F)cn(Cc3ccccc3)c2c1` (centres unmarked) [Example 1, 2-(1-Benzyl-6-nitro-1H-indol-3-yl)-1,1,1-trifluoro-3-piperidin-1-ylpropan-2-ol], the inhibition at 0.1 µM on human GRα protein (setting [1]) was 92%. In the assay with H4-III-E cells, the activation at 10 µM is under 10% and the “Antagonistic activity of 10 μM test compound” value (“Antagonistic activity” below) was “◯”.
Regarding `CCOC(=O)C(O)(c1cn(Cc2ccccc2)c2cc([N+](=O)[O-])ccc12)C(F)(F)F` (centres unmarked) [Example 2, Ethyl 2-(1-benzyl-6-nitro-1H-indol-3-yl)-3,3,3-trifluoro-2-hydroxypropanoate], on human GRα protein, the inhibition at 0.1 µM amounted to 87%. In the assay on H4-III-E cells, the activation at 10 µM is under 10% and the “Antagonistic activity” value is “◯”.
`C=CCC(O)(c1cn(Cc2ccccc2)c2cc([N+](=O)[O-])ccc12)C(F)(F)F` (centres unmarked) [Example 8, 2-(1-Benzyl-6-nitro-1H-indol-3-yl)-1,1,1-trifluoropent-4-en-2-ol]: the inhibition at 0.1 µM at human GRα protein (setting [1]) was determined as 98%. Moreover, in the assay with H4-III-E cells, the activation at 10 µM was under 10% and the “Antagonistic activity” value is “◯”.
Consider `CCOC(=O)C(O)(c1cn(Cc2ccccc2)c2c([N+](=O)[O-])cccc12)C(F)(F)F` (centres unmarked) [Example 21, Ethyl 2-(1-benzyl-7-nitro-1H-indol-3-yl)-3,3,3-trifluoro-2-hydroxypropanoate], for which the “Binding Inhibitory ratio (%) of test compound (1 μM)” value at human GRα protein (1 μM test compound, 3H-Dex, NSB with 10 μM dexamethasone) stood at 79%. Also, in the assay with H4-III-E cells, the activation at 10 µM was under 10% and the “Antagonistic activity” value is on record as “◯”.
Regarding `Cc1ccccc1C(=O)CC(O)(c1cn(Cc2ccccc2)c2cc([N+](=O)[O-])ccc12)C(F)(F)F` (centres unmarked) [Example 68, 3-(1-Benzyl-6-nitro-1H-indol-3-yl)-4,4,4-trifluoro-3-hydroxy-1-(2-methylphenyl)-butan-1-one], the inhibition at 0.1 µM on human GRα protein (setting [1]) was determined as 79%. In the assay on H4-III-E cells, the activation at 10 µM is under 10% and the “Antagonistic activity” value is recorded as “◯”.
For the molecule `COc1ccc(C(=O)C2CCN(CC(O)(c3cn(Cc4ccccc4)c4cc([N+](=O)[O-])ccc34)C(F)(F)F)CC2)cc1` (centres unmarked) [Example 73, {1-[2-(1-Benzyl-6-nitro-1H-indol-3-yl)-3,3,3-trifluoro-2-hydroxypropyl]piperidin-4-yl}(4-methoxyphenyl)methanone], the inhibition at 0.1 µM at human GRα protein (setting [1]) worked out at 95%. In addition, in the assay on H4-III-E cells, the “Agonistic activity of 10 μM test compound” value is listed as “◯” and the “Antagonistic activity” value is on record as “◯”.
In the case of `O=[N+]([O-])c1ccc2c(C(O)(CN3CCN(c4ccccc4)CC3)C(F)(F)F)cn(Cc3ccccc3)c2c1` (centres unmarked) [Example 75, 2-(1-Benzyl-6-nitro-1H-indol-3-yl)-1,1,1-trifluoro-3-(4-phenylpiperazin-1-yl)propan-2-ol], the inhibition at 0.1 µM on human GRα protein (setting [1]) was 96%. Further, in the assay with H4-III-E cells, the “Agonistic activity of 10 μM test compound” value is “◯” and the “Antagonistic activity” value was “◯”.
As for `O=[N+]([O-])c1ccc2c(C(O)(CN3CCC(O)(Cc4ccccc4)CC3)C(F)(F)F)cn(Cc3ccccc3)c2c1` (centres unmarked) [Example 76, 4-Benzyl-1-[2-(1-benzyl-6-nitro-1H-indol-3-yl)-3,3,3-trifluoro-2-hydroxypropyl]-piperidin-4-ol], at human GRα protein (setting [1]), the inhibition at 0.1 µM stood at 60%. In addition, in the assay with H4-III-E cells, the activation at 10 µM is under 10% and the “Antagonistic activity” value is listed as “◯”.
For `O=[N+]([O-])c1ccc2c(C(O)(CN3CCC(Oc4ccc(F)cc4)CC3)C(F)(F)F)cn(Cc3ccccc3)c2c1` (centres unmarked) [Example 77, 2-(1-Benzyl-6-nitro-1H-indol-3-yl)-1,1,1-trifluoro-3-[4-(4-fluorophenoxy)-piperidin-1-yl]propan-2-ol], at human GRα protein (setting [1]), the inhibition at 0.1 µM was 92%. Further, in the assay with H4-III-E cells, the “Agonistic activity of 10 μM test compound” value was “◯” and the “Antagonistic activity” value is recorded as “◯”.
Consider `O=[N+]([O-])c1ccc2c(C(O)(CN3CCC(O)CC3)C(F)(F)F)cn(Cc3ccccc3)c2c1` (centres unmarked) [Example 78, 1-[2-(1-Benzyl-6-nitro-1H-indol-3-yl)-3,3,3-trifluoro-2-hydroxypropyl]piperidin-4-ol], for which the inhibition at 0.1 µM on human GRα protein (setting [1]) is 81%. Also, in the assay on H4-III-E cells, the “Agonistic activity of 10 μM test compound” value was “◯” and the “Antagonistic activity” value is reported as “◯”.
Consider `CN(C(=O)C1CCN(CC(O)(c2cn(Cc3ccccc3)c3cc([N+](=O)[O-])ccc23)C(F)(F)F)CC1)c1ccccc1` (centres unmarked) [Example 95, 1-[2-(1-Benzyl-6-nitro-1H-indol-3-yl)-3,3,3-trifluoro-2-hydroxypropyl]-N-methyl-N-phenylpiperidine-4-carboxamide], for which the inhibition at 0.1 µM on human GRα protein (setting [1]) turned out to be 59%. Further, in the assay with H4-III-E cells, the activation at 10 µM was under 10% and the “Antagonistic activity” value is “◯”.
For `CC(C)(C)OC(=O)N1CCN(CC(O)(c2cn(Cc3ccccc3)c3cc([N+](=O)[O-])ccc23)C(F)(F)F)CC1` (centres unmarked) [Example 100, tert-Butyl 4-[2-(1-benzyl-6-nitro-1H-indol-3-yl)-3,3,3-trifluoro-2-hydroxypropyl]-piperazine-1-carboxylate], the inhibition at 0.1 µM on human GRα protein (setting [1]) stood at 101%. In the assay on H4-III-E cells, the “Agonistic activity of 10 μM test compound” value was “◯” and the “Antagonistic activity” value was “◯”.
For the molecule `O=[N+]([O-])c1ccc2c(C(O)(CNCCc3ccccc3)C(F)(F)F)cn(Cc3ccccc3)c2c1` (centres unmarked) [Example 157, 2-(1-Benzyl-6-nitro-1H-indol-3-yl)-1,1,1-trifluoro-3-[(2-phenylethyl)amino]-propan-2-ol], the inhibition at 0.1 µM at human GRα protein (setting [1]) turned out to be 50%.
On the same count and under the same terms, then `CCOC(=O)CCc1ccc(C(=O)C2CCN(CC(O)(c3cn(Cc4ccccc4)c4cc([N+](=O)[O-])ccc34)C(F)(F)F)CC2)cc1` (centres unmarked) [Example 229, Ethyl 3-[4-({1-[2-(1-benzyl-6-nitro-1H-indol-3-yl)-3,3,3-trifluoro-2-hydroxypropyl]piperidin-4-yl}carbonyl)phenyl]propanoate], with 74%.

For the origin of these results see patent US20100190768A1, “NOVEL FUSED PYROLE DERIVATIVE” (Dainippon Sumitomo Pharma Co., Ltd., priority 2005, published 2010).
